Where a name gives a salt, the structure may show the parent alone. Read-outs that look alike come from different tables or passages of the source.

This is an account of results in patent publication US5322698A, “Process for the preparation of a tablet or dragee composition containing a heat-, light- and moisture-sensitive active ingredient having monoclinic crystal structure” (priority 1990, dated 1994).

The nature of data set [1]: Storage experiments in the presence of moisture, heat and light load (wet-granulated tablets). The data set is classed as physicochemical. As to conditions: in the wet-granulated tablet of Comparative Example 1. The source says: The tablets obtained were subjected to storage experiments carried out in the presence of moisture and heat as well as light load.
For data set [2] the following is noted: antiarrhythmic reference drugs; Welling et al. 1985; cited from earlier work.
Data set [3] in a line: Clinical investigations: half life in blood and relative bioavailability. The data set is classed as in vivo, human. The settings on record: for half-life: human, blood, read-out: half life measured in the blood (converted).

As for `O=C1O[C@H]([C@@H](O)CO)C(O)=C1O` [ascorbic acid], the “prevention of decomposition process by antioxidant” value in data set [1] is “could not be prevented by ascorbic acid”.

For orientation: bioavailability means the share of a dose that reaches the circulation, judged against a reference dose that is usually intravenous. Regarding `C=C[C@H]1C[N@@]2CC[C@H]1C[C@@H]2[C@@H](O)c1ccnc2ccc(OC)cc12` [quinidine], the bioavailability in data set [2] is on record as 40 to 70%.

As usually defined, the half-life is the time needed for the level to fall by half in the phase considered. `Cc1cccc(C)c1NNC(=N)N(C)C` [1-(2,6-Dimethylphenyl)-4,4'-dimethylaminoguanidine hydrochloride]: the relative bioavailability entry in data set [3] (composition according to the invention, clinical) was “about 80%”. Moreover, the half-life in data set [3] (composition according to the invention) is 192 min; in data set [3] (injectable composition containing the same active ingredient) it was 144 min.
